Measurements from PMC9989471, “The Key Roles of Mycobacterium tuberculosis FadD23 C-terminal Domain in Catalytic Mechanisms” (Frontiers in Microbiology, 2023).

Experiments:
FadD23 [1] = target: T1, FadD23 (Mycobacterium tuberculosis, UniProt P9WQ47); experiment: crystal structure ([…] Å), formed from ATP and palmitic acid; type: binding
T1 construct: full-length

FadD23 [2] = target: T1, FadD23; experiment: crystal structure ([…] Å), with palmitic acid bound; type: binding
FadD23 [3] = target: T1, FadD23; experiment: SPR; type: binding
FadD23 [4] = target: T1, FadD23; experiment: SPR; also crystal structure with AMP-PNP, MS, DSF and hydroxamate-MesG assay; type: binding
CCCCCCCCCCCC(=O)O = experiment: purified protein; conditions: ATP, Mg2+

T1 sequence (P9WQ47 whole entry): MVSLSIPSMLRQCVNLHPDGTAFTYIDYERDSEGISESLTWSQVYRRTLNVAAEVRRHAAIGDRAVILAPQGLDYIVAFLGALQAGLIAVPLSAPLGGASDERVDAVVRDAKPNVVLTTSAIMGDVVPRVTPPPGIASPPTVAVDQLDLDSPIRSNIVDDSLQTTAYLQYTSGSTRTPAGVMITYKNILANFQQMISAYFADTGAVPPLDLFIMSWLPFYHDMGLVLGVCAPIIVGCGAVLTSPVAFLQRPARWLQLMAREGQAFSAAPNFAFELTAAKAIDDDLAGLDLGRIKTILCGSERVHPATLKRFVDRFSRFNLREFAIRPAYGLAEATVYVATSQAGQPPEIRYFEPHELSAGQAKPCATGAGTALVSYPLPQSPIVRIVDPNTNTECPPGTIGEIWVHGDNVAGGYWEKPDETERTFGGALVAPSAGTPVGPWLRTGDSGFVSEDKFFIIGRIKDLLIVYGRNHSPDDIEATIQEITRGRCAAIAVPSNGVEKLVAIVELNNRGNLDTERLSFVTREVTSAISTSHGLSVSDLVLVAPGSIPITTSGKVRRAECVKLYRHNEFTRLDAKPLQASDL

Q: Which “crystal structure (2.68 Å), formed from ATP and palmitic acid” value (FadD23 [1]) does the source give for CCCCCCCCCCCCCCCC(=O)OP(=O)(O)OC[C@H]1O[C@@H](n2cnc3c(N)ncnc32)[C@H](O)[C@@H]1O [AMP-C16, hexadecanoyl adenylate] here?
A: FadD23 catalyzed the hydrolysis of ATP and connected AMP with palmitic acid to generate a molecule of AMP-C16.

Q: For Nc1ncnc2c1ncn2[C@@H]1O[C@H](CO[P@](=O)(O)O[P@](=O)(O)NP(=O)(O)O)[C@@H](O)[C@H]1O [AMP-PNP], which “crystal structure (2.25 Å), with palmitic acid bound” value (FadD23 [2]) is on record?
A: In the AMP-PNP-FadD23 complex, the O27 of AMP-PNP interacted with NE of Arg460 through hydrogen bond

Q: How did the Kd (FadD23 [3]) turn out when Nc1ncnc2c1ncn2[C@@H]1O[C@H](COP(=O)(O)OP(=O)(O)OP(=O)(O)O)[C@@H](O)[C@H]1O [ATP] was run?
A: ~1000 nM

Q: CCCCCCCCCCCCCCCC(=O)O [palmitic acid] was tested. Which Kd (FadD23 [4]) did it give?
A: 34.5 µM

Q: With “FadD23 (Mycobacterium tuberculosis H37Rv)” as the molecule, how does the Km (CCCCCCCCCCCC(=O)O) read?
A: 33.56 ± 5.40 µmol/L

Q: And the Vmax (CCCCCCCCCCCC(=O)O)?
A: 0.00108 µmol/min

Q: And the kcat (CCCCCCCCCCCC(=O)O)?
A: 0.00239 s⁻¹

Q: And the kcat/Km (CCCCCCCCCCCC(=O)O)?
A: 71.2 M⁻¹ s⁻¹
